Experimental data from patent publication US20100197908A1 (Boehringer Ingelheim International GmbH, priority 2006, published 2010).
Where a name gives a salt, the structure may show the parent alone.

Biological target: T1, hMCH-1R (Homo sapiens, UniProt Q99705)
T1 construct: expressed in transfected cells; host or cells: CHO/Galpha16 cells (stably transfected), membranes
Test: MCH-1 receptor binding test (125I-MCH binding to membranes of hMCH-1R transfected CHO/Galpha16 cells)
Conditions: membranes of CHO/Galpha16 cells stably transfected with human hMCH-1R, 100 pM 125I-MCH
Experimental: After the incubation the reaction is filtered using a cell harvester through 0.5% PEI treated fibreglass filters (GF/B, Unifilter Packard). The membrane-bound radioactivity retained on the filter is then determined after the addition of scintillator substance (Packard Microscint 20) in a measuring device (TopCount of Packard). […] The analysis of the concentration binding curve is carried out on the assumption of one receptor binding site.

T1 sequence (Q99705 whole entry): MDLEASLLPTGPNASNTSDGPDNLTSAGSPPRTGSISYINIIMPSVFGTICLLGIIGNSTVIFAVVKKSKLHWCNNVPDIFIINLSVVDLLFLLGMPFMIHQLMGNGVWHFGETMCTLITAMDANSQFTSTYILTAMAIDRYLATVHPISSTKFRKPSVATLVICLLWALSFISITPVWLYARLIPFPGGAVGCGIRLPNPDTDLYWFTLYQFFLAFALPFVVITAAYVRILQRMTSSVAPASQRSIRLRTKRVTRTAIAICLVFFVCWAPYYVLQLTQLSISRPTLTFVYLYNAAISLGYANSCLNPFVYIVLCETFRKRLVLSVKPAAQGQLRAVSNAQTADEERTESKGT

Structure (SMILES) | IC50 [nM]
CC(=O)N1CCN(CCOc2ccc(CCc3ccc(OCc4ccccc4)nn3)nc2)CC1 [Example 29.10] | 19
COCCN(C)Cc1ccc(CCc2ccc(OCc3ccc(F)cc3)nn2)cc1 [Example 10.5] | 4
Fc1ccccc1COc1ccc(CCc2ccc(CN3CCCC3)cc2)nn1 [Example 12.2, 3-(2-Fluoro-benzyloxy)-6-[2-(4-pyrrolidin-1-ylmethyl-phenyl)-ethyl]-pyridazine trifluoroacetate] | 13
CC1CCCCN1Cc1ccc(CCc2ccc(OCc3ccccc3)nn2)nc1 (centres unmarked) [Example 4.4] | 8
OC1CCN(Cc2ccc(CCc3ccc(OCC4CCCCO4)nn3)cc2)CC1 (centres unmarked) [Example 22.2, 1-(4-{2-[6-(Tetrahydro-pyran-2-ylmethoxy)-pyridazin-3-yl]-ethyl}-benzyl)-piperidin-4-ol] | 136
c1ccc(COc2ccc(CCc3ccc(CN4CCCC4)cn3)nn2)cc1 [Example 4.1] | 16
c1ccc(COc2ccc(CCc3ccc(CNCc4cccnc4)cn3)nn2)cc1 [Example 4.2] | 20
OC1CCN(CCc2ccc(CCc3ccc(OCc4ccccc4)nn3)nc2)CC1 [Example 31.10] | 4
CN(Cc1ccccc1)c1ccc(CCc2ccc(CN3CCCC3)cc2)nn1 [Example 16.2, Benzyl-methyl-{6-[2-(4-pyrrolidin-1-ylmethyl-phenyl)-ethyl]-pyridazin-3-yl}-amine] | 590
c1ccc(COc2ccc(CCc3ccc(CN4CCOCC4)cc3)nn2)cc1 [Example 1.1, 4-{4-[2-(6-Benzyloxy-pyridazin-3-yl)-ethyl]benzyl}-morpholine] | 4
COC1CCN(Cc2ccc(C(=O)Cc3ccc(OCc4ccc(F)cc4)nn3)cc2)CC1 [Example 15.1, 2-[6-(4-Fluoro-benzyloxy)-pyridazin-3-yl]-1-[4-(4-methoxy-piperidin-1-ylmethyl)-phenyl]-ethanone] | 9
